{"source": "patent US20250197372A1", "about": "(priority 2020, published 2025)", "key": {"[1]": {"molecular_target": "T1, recombinant human GBA (beta-glucocerebrosidase) (Homo sapiens, UniProt P04062)", "T1 sequence (P04062 40-536)": "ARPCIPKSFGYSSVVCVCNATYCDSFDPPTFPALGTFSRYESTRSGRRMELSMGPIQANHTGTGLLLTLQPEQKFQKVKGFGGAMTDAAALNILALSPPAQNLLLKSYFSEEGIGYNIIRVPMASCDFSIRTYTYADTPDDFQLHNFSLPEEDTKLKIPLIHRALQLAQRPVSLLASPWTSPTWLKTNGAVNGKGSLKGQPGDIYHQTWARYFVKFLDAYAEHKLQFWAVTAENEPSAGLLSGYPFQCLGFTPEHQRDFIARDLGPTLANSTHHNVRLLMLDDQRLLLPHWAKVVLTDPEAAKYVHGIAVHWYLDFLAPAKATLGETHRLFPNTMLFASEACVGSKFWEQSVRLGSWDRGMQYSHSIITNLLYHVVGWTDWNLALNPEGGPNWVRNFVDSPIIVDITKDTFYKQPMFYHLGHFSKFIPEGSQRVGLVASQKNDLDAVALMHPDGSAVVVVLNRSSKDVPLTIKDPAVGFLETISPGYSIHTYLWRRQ", "experiment": "Beta-glucocerebrosidase (GBA, glucosylceramidase) assay (4-methylumbelliferyl-beta-D-pyranoside substrate, fluorescence)", "format": "biochemical", "method_in_brief": "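Recombinant human GBA preincubated with compound dilutions 60 min at 37 °C, then 4-methylumbelliferyl-beta-D-pyranoside added for 60 min at 37 °C. Stopped at pH 10 (glycine/NaOH); fluorescence ex 365/em 440 nm. IC50 from 4-PL fit of inhibition relative to untreated enzyme.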"}, "[2]": {"molecular_target": "recombinant human GAA (acid alpha-glucosidase) (Homo sapiens, UniProt P10253)", "experiment": "Acid alpha-glucosidase (GAA) assay (4-methylumbelliferyl-alpha-D-pyranoside substrate, fluorescence)", "format": "biochemical", "method_in_brief": "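Recombinant human enzyme preincubated 60 min at 37 °C with compound dilutions, then 4-methylumbelliferyl-alpha-D-pyranoside substrate added for 20 min at 37 °C. Stopped with glycine/NaOH pH 10; methylumbelliferone fluorescence (ex 365, em 440 nm) versus untreated enzyme; IC50 by 4-PL fit.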"}}}
{"smiles": "Cc1cc(NCc2ccc(CN3C[C@H](O)[C@@H](O)[C@H](O)[C@H]3CO)cc2)cc(C2=COCCO2)c1", "note": "[Compound 1050, (2R,3R,4R,5S)-1-{[4-({[3-(5,6-dihydro-1,4-dioxin-2-yl)-5-methylphenyl]amino}methyl)phenyl]methyl}-2-(hydroxymethyl)piperidine-3,4,5-triol]", "values": [{"measurement": "IC50", "setting": "[1]", "result": "> 100", "unit": "µM"}, {"measurement": "IC50", "setting": "[2]", "result": 278, "unit": "nM"}]}
{"smiles": "N#Cc1cc(NCc2ccc(CN3C[C@H](O)[C@@H](O)[C@H](O)[C@H]3CO)cc2)cc(N2CCOCC2)c1", "note": "[Compound 1060, 3-(morpholin-4-yl)-5-{[(4-{[(2R,3R,4R,5S)-3,4,5-trihydroxy-2-(hydroxymethyl)piperidin-1-yl]methyl}phenyl)methyl]amino}-benzonitrile]", "values": [{"measurement": "IC50", "setting": "[1]", "result": "> 100", "unit": "µM"}, {"measurement": "IC50", "setting": "[2]", "result": 86, "unit": "nM"}]}
{"smiles": "OC[C@@H]1[C@@H](O)[C@H](O)[C@@H](O)CN1Cc1ccc(CNc2ccc(CN3CCCO3)cc2)cc1", "note": "[Compound 1092, (2R,3R,4R,5S)-2-(hydroxymethyl)-1-({4-[({4-[(1,2-oxazolidin-2-yl)methyl]phenyl}amino)methyl]phenyl}methyl)piperidine-3,4,5-triol]", "values": [{"measurement": "IC50", "setting": "[1]", "result": 121, "unit": "µM"}, {"measurement": "IC50", "setting": "[2]", "result": 786, "unit": "nM"}]}
{"smiles": "OC[C@@H]1[C@@H](O)[C@H](O)[C@@H](O)CN1Cc1cccc(CNc2ccc(-c3ncccn3)cc2)c1", "note": "[Compound 1084, (2R,3R,4R,5S)-2-(hydroxymethyl)-1-{[3-({[4-(pyrimidin-2-yl)phenyl]amino}methyl)phenyl]methyl}piperidine-3,4,5-triol]", "values": [{"measurement": "IC50", "setting": "[1]", "result": "> 100", "unit": "µM"}, {"measurement": "IC50", "setting": "[2]", "result": 2350, "unit": "nM"}]}
{"smiles": "N#Cc1cc(NCc2cccc(CN3C[C@H](O)[C@@H](O)[C@H](O)[C@H]3CO)c2)cc(-c2ncccn2)c1", "note": "[Compound 1047, 3-(pyrimidin-2-yl)-5-{[(3-{[(2R,3R,4R,5S)-3,4,5-trihydroxy-2-(hydroxymethyl)piperidin-1-yl]methyl}phenyl)methyl]amino}benzonitrile]", "values": [{"measurement": "IC50", "setting": "[1]", "result": 87.3, "unit": "µM"}, {"measurement": "IC50", "setting": "[2]", "result": 1470, "unit": "nM"}]}
{"smiles": "N#Cc1cc(NCc2ccc(CN3C[C@H](O)[C@@H](O)[C@H](O)[C@H]3CO)cc2)cc(-c2cccnn2)c1", "note": "[Compound 1064, 3-(pyridazin-3-yl)-5-{[(4-{[(2R,3R,4R,5S)-3,4,5-trihydroxy-2-(hydroxymethyl)piperidin-1-yl]methyl}phenyl)methyl]amino}-benzonitrile]", "values": [{"measurement": "IC50", "setting": "[1]", "result": 53.7, "unit": "µM"}, {"measurement": "IC50", "setting": "[2]", "result": 39, "unit": "nM"}]}
{"smiles": "[N-]=[N+]=Nc1ccc(NCCC23CC(CCN4C[C@H](O)[C@@H](O)[C@H](O)[C@H]4CO)(C2)C3)c([N+](=O)[O-])c1", "note": "[Compound 1103, (2R,3R,4R,5S)-1-[2-(3-{2-[(4-azido-2-nitrophenyl)amino]ethyl}bicyclo[1.1.1]pentan-1-yl)ethyl]-2-(hydroxymethyl)piperidine-3,4,5-triol]", "values": [{"measurement": "IC50", "setting": "[1]", "result": 11.9, "unit": "µM"}, {"measurement": "IC50", "setting": "[2]", "result": 2660, "unit": "nM"}]}
{"smiles": "OC[C@@H]1[C@@H](O)[C@H](O)[C@@H](O)CN1Cc1ccc(CNc2ccc(C3=COCCO3)cc2)cc1", "note": "[Compound 1093, (2R,3R,4R,5S)-1-{[4-({[4-(5,6-dihydro-1,4-dioxin-2-yl)phenyl]amino}methyl)phenyl]methyl}-2-(hydroxymethyl)piperidine-3,4,5-triol]", "values": [{"measurement": "IC50", "setting": "[1]", "result": 7.48, "unit": "µM"}, {"measurement": "IC50", "setting": "[2]", "result": 108, "unit": "nM"}]}
{"smiles": "O=[N+]([O-])c1cc(C2=COCCO2)ccc1NCc1ccc(CN2C[C@H](O)[C@@H](O)[C@H](O)[C@H]2CO)cc1", "note": "[Compound 1099, (2R,3R,4R,5S)-1-{[4-({[4-(5,6-dihydro-1,4-dioxin-2-yl)-2-nitrophenyl]amino}methyl)phenyl]methyl}-2-(hydroxymethyl)piperidine-3,4,5-triol]", "values": [{"measurement": "IC50", "setting": "[1]", "result": 37.1, "unit": "µM"}, {"measurement": "IC50", "setting": "[2]", "result": "< 1", "unit": "nM"}]}
{"smiles": "OC[C@@H]1[C@@H](O)[C@H](O)[C@@H](O)CN1CCc1cn(CCNc2ccccc2)c2ccccc12", "note": "[Compound 1076, (2R,3R,4R,5S)-2-(hydroxymethyl)-1-(2-{1-[2-(phenylamino)ethyl]-1H-indol-3-yl}ethyl)piperidine-3,4,5-triol]", "values": [{"measurement": "IC50", "setting": "[1]", "result": 7.81, "unit": "µM"}, {"measurement": "IC50", "setting": "[2]", "result": 4260, "unit": "nM"}]}
